Assay: excess molar enthalpy (molar enthalpy of mixing); xn = mol fraction of the nth substance listed
Conditions: 101 kPa, Liquid, Flow calorimetry

C1CCCCC1 [cyclohexane] + CCCCCO
x2 = 0
Conditions | excess molar enthalpy [kcal/mol]
298.15 K | 0
313.15 K | 0

CCCCCO [pentan-1-ol] + C1CCCCC1
excess molar enthalpy [kcal/mol]
Conditions | 298.15 K | 313.15 K
x1 = 0.05 | 0.0797 | 0.107
x1 = 0.1 | – | 0.139
x1 = 0.1001 | 0.105 | –
x1 = 0.1501 | 0.124 | 0.161
x1 = 0.2021 | – | 0.177
x1 = 0.2022 | 0.139 | –
x1 = 0.2522 | 0.149 | 0.188
x1 = 0.3022 | 0.155 | 0.193
x1 = 0.3521 | – | 0.196
x1 = 0.3523 | 0.158 | –
x1 = 0.4022 | – | 0.194
x1 = 0.4023 | 0.157 | –
x1 = 0.4522 | – | 0.187
x1 = 0.4523 | 0.153 | –
x1 = 0.5022 | 0.146 | 0.178
x1 = 0.5522 | 0.137 | 0.17
x1 = 0.6022 | 0.126 | 0.152
x1 = 0.6519 | – | 0.139
x1 = 0.6522 | 0.113 | –
x1 = 0.7019 | – | 0.118
x1 = 0.7022 | 0.0982 | –
x1 = 0.7521 | – | 0.0985
x1 = 0.7522 | 0.083 | –
x1 = 0.8021 | 0.065 | 0.0799
x1 = 0.8501 | 0.0493 | 0.0598
x1 = 0.9 | 0.033 | 0.0381
x1 = 0.95 | 0.0162 | 0.0191
x1 = 1 | 0 | 0

CCCCCO [pentan-1-ol] + Cc1ccccc1
excess molar enthalpy [kcal/mol]
Conditions | 298.15 K | 313.15 K
x1 = 0.0511 | 0.129 | 0.143
x1 = 0.1004 | 0.182 | 0.211
x1 = 0.1497 | 0.211 | –
x1 = 0.1498 | – | 0.252
x1 = 0.2012 | 0.232 | –
x1 = 0.2013 | – | 0.279
x1 = 0.2507 | 0.244 | –
x1 = 0.2508 | – | 0.294
x1 = 0.3003 | 0.251 | 0.299
x1 = 0.35 | 0.254 | 0.299
x1 = 0.3999 | – | 0.3
x1 = 0.4018 | 0.249 | –
x1 = 0.4516 | 0.242 | –
x1 = 0.4518 | – | 0.287
x1 = 0.5016 | 0.229 | 0.277
x1 = 0.5517 | 0.214 | 0.26
x1 = 0.6018 | 0.195 | –
x1 = 0.6019 | – | 0.24
x1 = 0.65 | 0.174 | –
x1 = 0.6501 | – | 0.216
x1 = 0.7003 | 0.151 | –
x1 = 0.7004 | – | 0.19
x1 = 0.7507 | 0.126 | –
x1 = 0.7508 | – | 0.159
x1 = 0.8012 | 0.0992 | –
x1 = 0.8013 | – | 0.129
x1 = 0.8497 | 0.0747 | –
x1 = 0.8498 | – | 0.0978
x1 = 0.9004 | 0.0485 | –
x1 = 0.9005 | – | 0.0638
x1 = 0.9491 | 0.0243 | –
x1 = 0.9492 | – | 0.0315
x1 = 1 | 0 | 0

Cc1ccccc1 [toluene] + CCCCCO
x2 = 0
Conditions | excess molar enthalpy [kcal/mol]
298.15 K | 0
313.15 K | 0
